We go through 2 molecules from patent US20120322654A1, “SYNERGISTIC FUNGICIDAL MIXTURES” (BASF SE, priority 2010, published 2012).

The experiment deals with Septoria tritici. Kind of experiment: Microtiter plate test, activity against Septoria tritici (leaf blotch on wheat). The format is cell-based. As to conditions: MTP, absorption at 405 nm 7 days after inoculation, 18° C. Here is the method: The active compounds were formulated separately as a stock solution having a concentration of 10000 ppm in dimethyl sulfoxide.
Activity Against Septoria tritici, the Causal Agent of Leaf Blotch on Wheat
The stock solutions were mixed according to the ratio, pipetted onto a micro titer plate (MTP) and diluted with water to the stated concentrations. A spore suspension of Septoria tritici in an aqueous biomalt solution was then added. The plates were placed in a water vapor-saturated chamber at a temperature of 18° C. Using an absorption photometer, the MTPs were measured at 405 nm 7 days after the inoculation.
The measured parameters were compared to the growth of the active compound-free control variant (100%) and the fungus-free and active compound-free blank value to determine the relative growth in % of the pathogens in the respective active compounds.
The expected efficacies of active compound combinations were determined using Colby's formula (Colby, S. R., Calculating synergistic and antagonistic responses of herbicide combinations, Weeds, 15, pp. 20-22, 1967) and compared with the observed efficacies. […]

Turning to `O=C(Nc1ccccc1-c1ccc(Cl)cc1)c1cccnc1Cl` [Boscalid, boscalid], for the setting “0.25 ppm”, the Observed efficacy is given as 34%.
As for `CC1(C)C(C=C(Cl)Cl)C1C(=O)OC(C#N)c1cccc(Oc2ccccc2)c1` (stereo not drawn) [alpha-Cypermethrin, alpha-cypermethrin], the Observed efficacy (1 ppm) stood at 2%.
